For experiment [1], the target named is T1, 5-HT7(h) (Homo sapiens, UniProt P34969).
T1 construct: Eurofins CEREP
The experiment in a line: Radioligand binding, 5-HT7 (Eurofins CEREP). As to conditions: 1.0 × 10^−05 M; agonist radioligand; read-out: percent inhibition of the binding of a radioactively labeled ligand. The source says: (§1) Table A discloses mazindol and Met tested at […] and the compound binding calculated as a percent inhibition of the binding of a radioactively labeled ligand specific for each target (Eurofins CEREP, France).
(§2) An inhibition or stimulation of more than 50% is considered a significant effect of the test compounds. Fifty percent is a common cut-off for further investigation (i.e. determination of IC50 or EC50 values from concentration-response curves). Tables B and C display the binding profiles for Mazindol and Met.
(§3) The results are expressed as a percent of control specific binding obtained in the presence of the test compounds:
(§4) [formula] and as a percent inhibition of control specific binding obtained in the presence of the test compounds: […]

Experiment [2] deals with T2, 5-HT1A(h) (Homo sapiens, UniProt P08908).
T2 construct: Eurofins CEREP
T2 sequence (P08908 1-422): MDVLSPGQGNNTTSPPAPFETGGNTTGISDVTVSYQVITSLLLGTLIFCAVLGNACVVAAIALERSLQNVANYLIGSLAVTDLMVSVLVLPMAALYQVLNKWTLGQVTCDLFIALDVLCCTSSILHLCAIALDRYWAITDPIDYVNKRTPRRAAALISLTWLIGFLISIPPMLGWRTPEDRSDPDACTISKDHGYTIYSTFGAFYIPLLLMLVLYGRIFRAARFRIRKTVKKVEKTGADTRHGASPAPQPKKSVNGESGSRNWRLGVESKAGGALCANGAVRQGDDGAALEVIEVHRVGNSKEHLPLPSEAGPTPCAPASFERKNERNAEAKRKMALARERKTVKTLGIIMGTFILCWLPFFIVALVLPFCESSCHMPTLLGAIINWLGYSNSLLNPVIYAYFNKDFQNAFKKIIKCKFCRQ
The experiment in a line: Radioligand binding, 5-HT1A (Eurofins CEREP). As to conditions: 1.0 × 10^−05 M; agonist radioligand; read-out: percent inhibition of the binding of a radioactively labeled ligand.
Description: as §1
An inhibition or stimulation of more than 50% is considered a significant effect of the test compounds. Fifty percent is a common cut-off for further investigation (i.e. determination of IC50 or EC50 values from concentration-response curves).
as §3, §4

Experiment [3] deals with T3, Norepinephrine transporter (h) (Homo sapiens, UniProt P23975).
T3 construct: Eurofins CEREP
The experiment in a line: Radioligand binding, norepinephrine transporter (Eurofins CEREP). As to conditions: 1.0 × 10^−05 M; antagonist radioligand; read-out: percent inhibition of the binding of a radioactively labeled ligand.
Description: as §1, §2, §3, §4

Each structure is given as a SMILES string.

Broadly, the inhibition is the share of the control response that was lost under treatment.

T3 sequence (P23975 whole entry): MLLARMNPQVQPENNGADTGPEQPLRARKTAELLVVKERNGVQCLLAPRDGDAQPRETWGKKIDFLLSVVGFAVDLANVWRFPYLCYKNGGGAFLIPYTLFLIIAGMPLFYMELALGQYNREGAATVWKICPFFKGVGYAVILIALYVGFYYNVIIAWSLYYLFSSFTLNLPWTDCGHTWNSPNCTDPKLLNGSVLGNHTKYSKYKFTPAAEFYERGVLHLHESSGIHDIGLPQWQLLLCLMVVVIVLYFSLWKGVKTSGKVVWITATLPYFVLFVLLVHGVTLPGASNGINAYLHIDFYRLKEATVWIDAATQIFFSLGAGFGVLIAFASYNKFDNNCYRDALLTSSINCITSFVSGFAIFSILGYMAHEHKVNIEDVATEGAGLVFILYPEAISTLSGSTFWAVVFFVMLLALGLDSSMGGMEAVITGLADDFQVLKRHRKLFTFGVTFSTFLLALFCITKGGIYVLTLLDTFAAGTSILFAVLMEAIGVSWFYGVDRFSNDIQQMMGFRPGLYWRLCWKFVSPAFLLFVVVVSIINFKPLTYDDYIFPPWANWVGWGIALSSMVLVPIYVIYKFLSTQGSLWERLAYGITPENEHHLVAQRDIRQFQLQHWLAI
T1 sequence (P34969 whole entry): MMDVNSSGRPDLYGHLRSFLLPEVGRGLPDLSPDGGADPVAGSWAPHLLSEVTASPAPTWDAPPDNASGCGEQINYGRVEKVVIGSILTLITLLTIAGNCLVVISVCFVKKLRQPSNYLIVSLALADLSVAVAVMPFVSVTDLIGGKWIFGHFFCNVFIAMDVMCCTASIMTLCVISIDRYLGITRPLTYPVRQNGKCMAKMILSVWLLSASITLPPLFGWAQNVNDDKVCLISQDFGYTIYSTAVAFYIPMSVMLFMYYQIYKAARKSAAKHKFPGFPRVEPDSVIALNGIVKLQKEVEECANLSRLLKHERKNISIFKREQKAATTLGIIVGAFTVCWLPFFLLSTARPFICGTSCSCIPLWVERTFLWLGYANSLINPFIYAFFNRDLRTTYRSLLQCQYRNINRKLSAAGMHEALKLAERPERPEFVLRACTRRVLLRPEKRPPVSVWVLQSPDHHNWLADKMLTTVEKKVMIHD

On to `OC1(c2ccc(Cl)cc2)c2ccccc2C2=NCCN21` (stereo not drawn) [Mazindol, 5-(4-chlorophenyl)-2,5-dihydro-3 H-imadazo[2,1-a]isoindol-5-ol], for which the values for the inhibition at 10 µM in experiment [1], in experiment [2] and in experiment [3] were 52.9%, 89.5% and 100%, respectively.

The values above are taken from patent US11596622B2, “Mazindol treatment for heroin dependence and substance use disorder” (NLS Pharmaceutics AG, priority 2017, dated 2023).
